Tests used:
TLR4-FLNA complex = target: T1, TLR4-FLNA complex (Mus musculus, UniProt Q8BTM8); assay: ICV Aβ42 infusion mouse model: FLNA association with TLR4; assay type: in vivo; conditions: 10 mg/kg twice daily; prefrontal cortex and hippocampus
T1 construct: from tissue; host or cells: synaptosomes from prefrontal cortex and hippocampus of treated E129 mice
Method: . The anti-FLNA immunocomplexes were obtained by centrifugation, washed and dissociated using antigen elution buffer. […] The levels of FLNA-associated α7nAChRs and TLR4s were assessed by Western blotting and the blot stripped and re-probed for FLNA for immunoprecipitation/loading control.

NFT and Aβ42 aggregates = assay: Immunohistochemistry of NFT and Aβ42 aggregates in slice cultures; assay type: cell-based, rat; conditions: slice cultures incubated with Aβ42
Method: For immunohistochemistry, additional slices were removed and fixed in 4% paraformaldehyde in PBS at 4° C.
One section was immunostained with anti-NFT or -PHF.
Specimens were examined using a Nikon FXA microscope with a Princeton Instruments CCD camera and recorded digitally.
The correlations between the amount of NFT/PHF immunoreactivity and Aβ42-positive material accumulated within mature neurons were also determined.

[1] = tested on: tau (pSerine202, pThreonine231, pThreonine181); assay: LPS-induced tau phosphorylation in postmortem human hippocampal slices; assay type: cell-based; conditions: 1 nM compound, 1 hour
Method: The three phosphoepitopes of tau were detected in immunoprecipitates using specific antibodies using Western blots (WB).
The slices are carefully separated in 10 ml of oxygenated ice-cold dissection medium with two pairs of fine forceps and gentle shaking.
The reaction was terminated by diluting with 1.5 ml of ice-cold 1 mM EDTA-containing Ca^2+-free Kreb's-Ringer and centrifuged for 10 minutes at 15,000×g (4° C.).
After removal of the supernatant, the slices were homogenized to prepare post-mitochondrial (P2) fraction.
The anti-tau immunocomplexes were enriched by incubation with 50 μl of protein A/G-conjugated agarose beads at 4° C. and centrifugation.

[2] = tested on: α7nAChR (Aβ42-α7nAChR interaction); assay: Aβ42 affinity for α7nAChR in SK-N-MC cells; assay type: binding, human
Aβ42-α7nAChR complexes = assay: Postmortem human frontal cortex: Aβ42-α7nAChR complexes; assay type: cell-based; conditions: AD and Aβ42-treated control tissue; 0.1 and 1 nM
Method: Postmortem frontal cortex tissues were gradually thawed (from −80° C. to −20° C.) and were sliced using a chilled McIlwain tissue chopper (200 μm×200 μm×3 mm). […] Following two additional washes with 1 ml of ice-cold K-R, brain slices were suspended in 1 ml of K-R.
Incubation continued for 1 hour in the dark to minimize light destruction of the test agents. […] Reaction was terminated by the addition of 1.5 ml of ice-cold Ca^2+-free K-R. Tissue slices were harvested by a brief centrifugation and used as the tissue sources for various assays.

NMDAR [3] = assay: Levels of signaling molecules associated with NMDAR (NR1) in slice cultures; assay type: cell-based, rat; conditions: 0.1 μM Aβ42
Method: NMDAR activation and signaling was initiated by incubation of 6 slices with either 0.3 mM Mg^2+ containing KR (LMKR; basal) or LMKR containing 10 μM NMDA and 1 μM glycine at 37° C. for 30 minutes.
Ligand stimulation was terminated by the addition of 1 ml of ice-cold Ca^2+-free K-R containing mixture of protein phosphatase inhibitors, 0.5 mM EGTA and 0.1 mM EDTA. Brain slices were harvested by a brief centrifugation and were homogenized in 0.25 ml of ice-cold immunoprecipitation buffer. The homogenates were centrifuged at 1000×g for 5 minutes (4° C.) and the supernatant (post-mitochondrial fraction) was sonicated for 10 seconds on ice.
The resultant lysates were cleared by centrifugation at 50,000×g for 5 minutes and diluted with 0.75 ml of immunoprecipitation buffer. Protein concentrations were measured by Bradford method (Bio-Rad).
To determine the association of NMDARs with PSD-95, as well as NMDAR signaling, the levels of NMDAR subunits, PSD-95 and NMDAR-associated signaling molecules were measured in anti-NR1 immunoprecipitates. In these studies, brain slice lysates (100 μg) were immunoprecipitated overnight at 4° C. with 2 μg of immobilized anti-NR1 onto covalently conjugated protein A-agarose beads (Pierce-ENDOGEN). […]

[4] = tested on: α7nAChR (Aβ42-α7nAChR interaction); assay: Aβ42 affinity for α7nAChR in biotinylated synaptic membranes from postmortem frontal cortices; assay type: binding, human
Excerpt: FIG. 27 in two panels illustrates that Compound C0105 reduces affinity of the Aβ42-α7nAChR interaction. […] Data are means±SEM. n=11 for postmortem control tissue; n=6 for SK-N-MC cells.

[5] = tested on: tau (pSer202, pThr231, pThr181); assay: Tau phosphorylation in organotypic frontocortical slice cultures; assay type: cell-based, rat; conditions: C0105 0.1, 1, 10 nM; C0114 1, 10 nM; simultaneous with Aβ42
Method: On the day of study, medium was removed, the brain slices rinsed and incubated in 0.1% FBS-containing medium for 4 hours at 36° C. in 5% CO2.
The levels of phosphorylated tau (pSer202tau, pThr231tau and pThr181tau) as well as total tau precipitated (loading controls) are assessed by Western blotting using specific antibodies directed against each of the phosphoepitopes and the anti-tau, respectively.

[6] = target: FLNA pentamer VAKGL of SEQ ID NO: 1 (Homo sapiens, UniProt P21333); assay: [3H]NLX displacement from biotinylated VAKGL peptide; conditions: Bn-VAKGL peptide; single IC50; N=4; read-out: IC50, inhibition of [3H]NLX binding
Method: Nonspecific binding was defined by 1 mM NTX. The reaction was terminated by addition of 1 ml of ice-cold binding medium. The [^3H]NLX-bound Bn-VAKGL was trapped by incubation with […] NeutrAvidin®-agarose (Thermo), followed by centrifugation. Following two 1.5 ml washes with PBS, the bound [^3H]NLX was determined using scintillation spectrometry. […] N=4.

insulin receptor (IR) = assay: IR activation and signaling (pY1150/1151 IRβ, IRS-1) in slice cultures; assay type: cell-based, rat; conditions: insulin stimulation
Method: IR activation and signaling was initiated by incubation of 6 slices that were further chopped horizontally into 100 μm (100 μm×200 μm×3 mm) with either KR (basal) or KR containing 1 nM insulin at 37° C. for 30 minutes. […] Ligand stimulation was terminated by the addition of 1 ml of ice-cold Ca^2+-free K-R containing mixture of protein phosphatase inhibitors, 0.5 mM EGTA and 0.1 mM EDTA. Brain slices were harvested by a brief centrifugation and were homogenized in 0.25 ml of ice-cold immunoprecipitation buffer. The homogenates were centrifuged at 1000×g for 5 minutes (4° C.) and the supernatant (post-mitochondrial fraction) was sonicated for 10 seconds on ice. […] The resultant lysates were then cleared by centrifugation at 50,000×g for 5 minutes and diluted with 0.75 ml of immunoprecipitation buffer. Protein concentrations were measured by Bradford method (Bio-Rad).
In these experiments, brain slice lysates (100 μg) were immunoprecipitated overnight (about 18 hours) at 4° C. with 2 μg of immobilized anti-IRβ onto covalently conjugated protein A-agarose beads (Pierce-ENDOGEN). […]

[7] = tested on: voltage-gated Ca2+ channel mediated Ca2+ influx; assay type: in vivo, mouse; conditions: 10 mg/kg twice daily
α7nAChR [8] = conditions: mouse, in vivo
NMDAR [9] = assay: Postmortem human frontal cortex: NMDAR signaling and association with PSD-95; assay type: cell-based; conditions: AD brain slices, 1 nM, one hour incubation
Method: NMDAR activation and signaling were initiated by incubation of approximately 10 mg of in vitro treated brain slices with either LMKR (basal) or LMKR containing 10 μM NMDA and 1 μM glycine at 37° C. for 30 minutes. […] Ligand stimulation was terminated by the addition of 1 ml of ice-cold Ca^2+-free K-R containing 0.5 mM EGTA and 0.1 mM EDTA.
Brain slices were harvested by a brief centrifugation and were homogenized in 0.25 ml of ice-cold immunoprecipitation buffer. The homogenates were centrifuged at 1000×g for 5 minutes (4° C.) and the supernatant (post-mitochondrial fraction) is sonicated for 10 seconds on ice. […] The resultant lysates are then cleared by centrifugation at 50,000×g for 5 minutes and diluted with 0.75 ml of immunoprecipitation buffer. Protein concentrations are measured by Bradford method (Bio-Rad).
To determine the NMDAR signaling and the NMDAR complexes association with PSD-95 [also known as Disks large homolog 4 (DLH4)], the levels of NMDAR subunits, PSD-95 and NMDAR-associated signaling molecules were measured in anti-NR1 immunoprecipitates.
In these studies, brain slice lysates (200 μg) were immunoprecipitated overnight (about 18 hours) at 4° C. with 2 μg of immobilized anti-NR1 onto covalently conjugated protein A-agarose beads (Pierce-ENDOGEN). […]

[10] = target: T2, FLNA-α7nAChR/TLR4 and Aβ42-α7nAChR complexes (Homo sapiens, UniProt P21333); assay: FLNA-α7nAChR/TLR4 and Aβ42-α7nAChR associations in AD and Aβ42-treated control lymphocytes; assay type: cell-based; conditions: 1 nM, 30 minutes
T2 construct: endogenous in cells; host or cells: lymphocytes of AD patients and control subjects
T2 sequence (P21333 2-2647, one chain of several): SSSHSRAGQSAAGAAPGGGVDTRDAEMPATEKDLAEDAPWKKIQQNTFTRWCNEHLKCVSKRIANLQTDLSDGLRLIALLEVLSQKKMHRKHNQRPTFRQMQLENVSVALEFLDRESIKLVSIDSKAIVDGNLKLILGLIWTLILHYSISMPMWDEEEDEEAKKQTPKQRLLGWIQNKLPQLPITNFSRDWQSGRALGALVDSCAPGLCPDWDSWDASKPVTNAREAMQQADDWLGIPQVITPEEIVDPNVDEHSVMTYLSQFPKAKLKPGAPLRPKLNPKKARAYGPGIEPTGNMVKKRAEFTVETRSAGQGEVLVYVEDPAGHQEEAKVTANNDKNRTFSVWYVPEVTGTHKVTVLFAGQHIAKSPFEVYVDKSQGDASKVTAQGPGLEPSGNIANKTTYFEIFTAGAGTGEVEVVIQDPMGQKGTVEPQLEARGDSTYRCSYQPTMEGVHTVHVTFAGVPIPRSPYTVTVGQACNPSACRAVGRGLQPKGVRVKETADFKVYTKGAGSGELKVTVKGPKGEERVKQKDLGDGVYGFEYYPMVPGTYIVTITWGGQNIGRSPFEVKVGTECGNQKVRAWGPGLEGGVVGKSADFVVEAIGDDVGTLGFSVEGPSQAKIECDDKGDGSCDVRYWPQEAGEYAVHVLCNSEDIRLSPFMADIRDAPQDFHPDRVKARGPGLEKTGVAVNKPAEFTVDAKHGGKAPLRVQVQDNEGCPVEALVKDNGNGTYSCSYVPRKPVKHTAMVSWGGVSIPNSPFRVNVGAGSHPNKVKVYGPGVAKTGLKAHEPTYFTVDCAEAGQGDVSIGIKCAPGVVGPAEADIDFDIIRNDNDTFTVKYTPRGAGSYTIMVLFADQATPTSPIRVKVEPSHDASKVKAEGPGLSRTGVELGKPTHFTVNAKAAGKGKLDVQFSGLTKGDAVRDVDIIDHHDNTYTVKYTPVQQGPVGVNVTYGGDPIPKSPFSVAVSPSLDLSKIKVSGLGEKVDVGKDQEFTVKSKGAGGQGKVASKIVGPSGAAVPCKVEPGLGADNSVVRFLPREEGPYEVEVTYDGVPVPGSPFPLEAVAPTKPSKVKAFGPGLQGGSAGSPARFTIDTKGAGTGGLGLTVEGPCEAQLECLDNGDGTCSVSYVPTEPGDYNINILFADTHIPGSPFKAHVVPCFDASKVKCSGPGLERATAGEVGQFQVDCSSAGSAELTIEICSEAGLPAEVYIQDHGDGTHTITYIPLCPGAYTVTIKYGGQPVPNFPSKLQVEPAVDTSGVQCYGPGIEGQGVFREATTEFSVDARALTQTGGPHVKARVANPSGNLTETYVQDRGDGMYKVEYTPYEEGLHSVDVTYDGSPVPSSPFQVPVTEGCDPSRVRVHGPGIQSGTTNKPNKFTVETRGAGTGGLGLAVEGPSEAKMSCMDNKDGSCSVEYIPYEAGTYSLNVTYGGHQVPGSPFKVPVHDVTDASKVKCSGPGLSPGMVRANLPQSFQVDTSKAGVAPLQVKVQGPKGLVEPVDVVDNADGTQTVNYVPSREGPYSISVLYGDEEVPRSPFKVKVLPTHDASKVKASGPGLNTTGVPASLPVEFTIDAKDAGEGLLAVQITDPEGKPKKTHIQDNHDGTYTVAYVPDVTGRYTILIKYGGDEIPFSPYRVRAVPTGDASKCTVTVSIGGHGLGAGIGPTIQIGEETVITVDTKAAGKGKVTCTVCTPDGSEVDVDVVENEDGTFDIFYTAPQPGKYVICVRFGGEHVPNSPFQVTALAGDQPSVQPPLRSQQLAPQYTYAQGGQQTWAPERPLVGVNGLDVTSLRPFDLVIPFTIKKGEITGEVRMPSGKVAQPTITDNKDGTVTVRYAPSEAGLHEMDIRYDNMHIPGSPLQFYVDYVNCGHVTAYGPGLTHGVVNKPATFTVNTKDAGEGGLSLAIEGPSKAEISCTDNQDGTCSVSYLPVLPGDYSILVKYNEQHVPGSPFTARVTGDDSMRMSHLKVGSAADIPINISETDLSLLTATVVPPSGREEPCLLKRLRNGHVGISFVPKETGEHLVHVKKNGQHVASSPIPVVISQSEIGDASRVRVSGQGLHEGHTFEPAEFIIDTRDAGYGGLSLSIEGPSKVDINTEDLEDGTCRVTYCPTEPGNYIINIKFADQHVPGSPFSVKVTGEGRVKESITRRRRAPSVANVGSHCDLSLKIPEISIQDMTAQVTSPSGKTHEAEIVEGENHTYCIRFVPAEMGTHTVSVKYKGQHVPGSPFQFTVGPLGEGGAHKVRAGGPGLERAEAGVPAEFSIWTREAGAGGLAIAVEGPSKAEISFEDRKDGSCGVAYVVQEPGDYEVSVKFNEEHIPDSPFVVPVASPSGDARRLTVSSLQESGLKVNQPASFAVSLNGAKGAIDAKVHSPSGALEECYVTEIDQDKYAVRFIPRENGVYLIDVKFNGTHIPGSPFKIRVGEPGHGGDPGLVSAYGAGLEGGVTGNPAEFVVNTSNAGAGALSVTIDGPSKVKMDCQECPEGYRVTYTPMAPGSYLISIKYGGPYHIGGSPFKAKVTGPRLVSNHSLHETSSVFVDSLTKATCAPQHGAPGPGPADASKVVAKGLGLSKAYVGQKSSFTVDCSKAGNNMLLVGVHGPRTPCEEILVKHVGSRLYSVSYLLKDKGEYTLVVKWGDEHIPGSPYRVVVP
Method: Because lymphocytes contain α7nAChR and TLR4, whether the associations of these receptors with FLNA are increased in the lymphocytes of AD patients and whether Compound C0105 treatment ex vivo could disrupt these associations were assessed. Also assayed was the effect of Compound C0105 on Aβ42-α7nAChR complexes in AD lymphocytes and Aβ42-treated lymphocytes from age-matched control subjects.

α7nAChR [11] = assay type: cell-based, human; conditions: AD and Aβ42-treated control brain slices

SMILES: CN1CCC2(CC1)NCC(=O)N2Cc1ccccc1 [Compound C0105]
- Aβ42-induced increase in FLNA association with TLR4 (TLR4-FLNA complex): reduced Aβ42-induced increases in FLNA associations with both α7nAChR and TLR4
- Aβ42 aggregates immunostaining (NFT and Aβ42 aggregates): dramatically reduces
- NFT immunostaining (pTau) (NFT and Aβ42 aggregates): dramatically reduces
- LPS-induced tau phosphorylation [1]: reduces LPS-induced tau phosphorylation
- Reduction of Aβ42 binding affinity for α7nAChR ([2]; fresh SK-N-MC cells, n=6): 10,000 fold
- Kd ([2]; read-out: Aβ42 binding affinity for α7nAChR with Compound C0105, SK-N-MC cells): 1 nM
- Aβ42-α7nAChR complexes (Aβ42-α7nAChR complexes): reduces Aβ42-α7nAChR complexes
- Levels of six signaling molecules associated with NR1 after NMDA and glycine (NMDAR [3]): fully restored function
- Reduction of affinity of the Aβ42-α7nAChR interaction ([4]; FIG. 27: postmortem tissue and SK-N-MC cells): 1,000-10,000 fold
- Reduction of Aβ42 binding affinity for α7nAChR ([4]; postmortem control tissue, biotinylated synaptic membranes, n=11): 1000 fold
- Kd ([4]; read-out: Aβ42 binding affinity for α7nAChR after Compound C0105 incubation, postmortem control tissue): 16 nM
- Aβ42-induced tau phosphorylation [5]: reduced tau phosphorylation at all three phosphorylation sites
- IC50 [6]: 0.00276 nM
- Aβ42-induced IR signaling impairments (IRS-1 association, pY1150/1151 IRβ) (insulin receptor (IR)): normalized the signaling impairments
- K+-evoked calcium influx [7]: restored it
- Aβ42-induced reduction in calcium influx after PNU282987 (α7nAChR [8]): normalized
- NMDAR signaling impairment (six measures) (NMDAR [9]): normalized all six measures
- FLNA associations with α7nAChR and TLR4 in lymphocytes [10]: significantly reduced
- Functioning of α7nAChR (calcium influx after receptor stimulation) (α7nAChR [11]): preserves functioning

— patent publication US10760052B2, “Method of inhibiting tau phosphorylation” (priority 2012, dated 2020)
